# In patent publication EP4755886A1 (Chengdu Chipscreen Pharmaceutical Ltd., priority 2023, dated 2025):
# Where two headings read alike, the source gives them in different places.
# What was measured:
# [1] = tested on: MTAP^-/- HCT-116 cells; test: Cell proliferation (MTS), MTAP-/- HCT-116; type: cell-based, human; conditions: for Selectivity: HCT116 WT IC50 relative to HCT116 MTAP-/- IC50; for IC50: Homo sapiens, 240 h, MTAP-/- HCT-116, 10 days with compound, MTS reading, read-out: IC50 HCT116 MTAP-/-
# Outline: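 MTAP-/- (CRISPR/Cas9 biallelic knockout) or wild-type HCT-116 cells seeded at 100 cells/well, treated next day with 8-point 3-fold dilutions (top 20 µM) for 10 days at 37 °C, 5% CO2. Viability read by MTS; IC50 from four-parameter logistic fit of inhibition rate vs log concentration.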
# [2] = tested on: wild-type HCT-116 cells; test: Cell proliferation (MTS), wild-type HCT-116; type: cell-based; conditions: Homo sapiens, 240 h; wild-type HCT-116, 10 days with compound, MTS reading; read-out: IC50 HCT116 WT
# Outline: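 Wild-type HCT-116 cells were seeded at 100 cells/well in McCoy's 5A/10% FBS. From day 1 they were treated with compound in 3-fold dilutions (initial 20 µM, 8 points) for 10 days at 37° C. Proliferation was read by MTS on day 11, and IC50 was obtained from a four-parameter logistic fit.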
# [3] = in vivo; conditions: mouse, po, 10 mg/kg
# Protocol: (§1) Experimental materials: the experimental animals were healthy adult female BALB/c mice (provided by Sichuan Vital River Laboratory Animal Technology Co., Ltd.).
# (§2) Administration mode and sample collection in mice: BALB/c female mice received oral intragastrical administration (10 mg/kg, vehicle: 0.5% methylcellulose/0.2% Tween 80), and 60 µL of whole blood from the venous plexus of the fundus of the mice at different time points was collected at 0.25 h, 0.5 h, 1 h, 2 h, 4 h, 6 h, 8 h, and 24 h after administration and centrifuged at 4000 rpm for 6 min to collect plasma.
# (§3) 10 µL of mouse plasma sample was added to 190 µL of acetonitrile solution containing an internal standard to precipitate protein. The mixture was vortexed for 10 min and centrifuged at 4000 rpm for 10 min. The supernatant was collected and added to a 96-well plate. The samples were analyzed by LC-MS/MS. The drug concentrations in the plasma of mice at different time points after intragastric administration of the example compounds were measured by an LC-MS/MS method, and the related pharmacokinetic parameters were calculated, such that the pharmacokinetic behavior of the compounds in the mice was studied, and the pharmacokinetic characteristics were evaluated.
# [4] = PK experiment in mice; conditions: mouse, plasma, po, 10 mg/kg
# Protocol: as §1, §2, §3
# [5] = tested on: gene-editing MTAP-/- human colon cancer cell strain HCT116; test: Efficacy in MTAP-/- HCT116 subcutaneous xenograft mouse model; type: in vivo, Balb/c nude mice; conditions: 50 mg/kg, PO, qd, 28 days
# Protocol: The blank group contained 40% PEG400 normal saline with 2% DMSO. […] The test substance was intragastrically administered at 10 mg/kg once daily, and MRTX1719 was intragastrically administered at 50 mg/kg once daily. Model control: The vehicle (2% DMSO + 40% PEG400 + 58% normal saline) was intragastrically administered at a dose of 10 mL/kg once daily. Administration was performed for 28 days in total. […] The mice were euthanized on the day when the last administration was completed. […] In the formula, VTt represents the tumor volume of the treatment group at each measurement, and VT0 represents the tumor volume measured when the treatment group is grouped; VCt represents the tumor volume of the vehicle group at each measurement (same as VTt), and VC0 represents the tumor volume measured when the vehicle group is grouped. Data were analyzed using GraphPad Prism 9.0 software and expressed as Mean ± SEM (standard error). Pairwise comparisons between each administration group and the control group were performed using one-way analysis of variance (ANOVA). Variance homogeneity was determined using the Brown-Forsythe method, and variance heterogeneity was determined using the Dunnett's T3 method. Table 7. Efficacy evaluation in HCT116 subcutaneous xenograft mouse model
# [6] = target: T1, hERG (Homo sapiens, UniProt Q12809); test: hERG test (Predictor hERG Fluorescence Polarization Assay Kit); type: binding
# T1 construct: purchased ThermoFisher Scientific PV5365
# Protocol: Predictor™ hERG Fluorescence Polarization Assay Kit (ThermoFisher Scientific, PV5365).
# The procedures in the kit instructions were followed: 4× Predictor™ hERG Tracer Red, 4× E-4031, and 4× test substance solutions (final assay concentration: 10 µM) were prepared in advance. 5 µL Predictor™ hERG FP Assay Buffer and 5 µL Predictor™ hERG Membrane were added sequentially to the Assay Blank group in a 384-well plate. 2.5 µL Predictor™ hERG FP Assay Buffer, 2.5 µL of 4× E-4031, and 2.5 µL of 4× test substance were added to the negative control group, the positive control group, and the test substance group, respectively, and then 5 µL Predictor™ hERG Membrane and 2.5 µL of 4× Predictor™ hERG Tracer Red were sequentially added. The total volume of the experimental system was 10 µL, and three duplicate wells were set for each group. After loading, the plate was gently tapped to mix well and incubated at room temperature (25 °C) in the dark for 3.5 h. After the incubation was completed, the fluorescence polarization value mP was measured on a microplate reader, and G Factor was 2.14.
# The inhibition rate of the test substance was calculated using the following formula: [formula]
# [7] = tested on: human large cell lung cancer cell line LU99; test: Efficacy in LU99 xenograft mouse model; type: in vivo, Balb/c nude mice; conditions: 50 mg/kg, PO, qd, 28 days
# Protocol: The human large cell lung cancer cell line LU99 was purchased from Nanjing Cobioer Biosciences Co., Ltd. (CBP61512) and cultured in RPMI-1640 medium (Gibco) containing 10% fetal bovine serum (Gibco); the test substances were prepared into suspensions at concentrations of 0.3 mg/mL, 1 mg/mL, and 5 mg/mL using a 0.5% aqueous MC solution containing 0.2% Tween 80. Reference Example 6 (MRTX1719) was prepared into a 5 mg/mL clear solution using 40% PEG400 normal saline containing 2% DMSO.
# LU99 cells in the logarithmic growth phase were digested, collected, and counted, and the cell density was adjusted to 2 × 10^7 cells/mL using a 1:1 serum-free medium and matrigel (Corning). 18-20 g of Balb/c nude mice (Beijing Huafukang Biotechnology Co., Ltd.) were inoculated subcutaneously with 100 µL of cell suspension per mouse. On day 12 after inoculation, animals with a mean tumor volume of 116 mm^3 were randomly grouped, with 7 animals in each group. The test substances were intragastrically administered at 3 mg/kg, 10 mg/kg, and 50 mg/kg once daily, and MRTX1719 was intragastrically administered at 50 mg/kg once daily. A vehicle (2% DMSO + 40% PEG400 + 58% normal saline) was intragastrically administered to the blank group at a dose of 10 mL/kg once daily. Administration was performed for 28 days in total.
# After the animals were inoculated with LU99 cells, the tumor volume was measured 2-3 times a week, and the tumor volume was calculated based on length × width^2 × 0.5. On the day when the last administration was completed, except for the mice with tumor regression, which were subjected to discontinuation observation, the remaining mice were euthanized.
# In the formula, VTt represents the tumor volume of the treatment group at each measurement, and VT0 represents the tumor volume measured when the treatment group is grouped; VCt represents the tumor volume of the model control group at each measurement, and VC0 represents the tumor volume measured when the model control group is grouped.
# Data were analyzed using GraphPad Prism 9.0 software and expressed as Mean ± SEM (standard error). Pairwise comparisons between each administration group and the model control group were performed using one-way analysis of variance (ANOVA). Variance homogeneity was determined using the Brown-Forsythe method, and variance heterogeneity was determined using the Dunnett's T3 method. Table 8. Efficacy evaluation in LU99 xenograft mouse model
# [8] = target: T2, CYP450 enzyme 3A4 (Homo sapiens, UniProt P08684); test: CYP inhibition test in human liver microsomes; type: in vitro ADME; conditions: human liver microsomes 0.1 mg/mL
# T2 construct: Liver microsomes (purchased from BIOIVT, Cat. No.: X008070); tissue BIOIVT X008070; host or cells: human liver microsomes
# Protocol: Experimental materials: human liver microsomes (purchased from BIOIVT);
# PBS: 0.1 M KH2PO4 and K2HPO4 buffers, pH 7.4.
# MgCl2: a certain amount of MgCl2 was weighed out and prepared into a 20 mM MgCl2 solution with PBS.
# NADPH (Chinese name: reduced nicotinamide adenine dinucleotide phosphate, purchased from Sigma, Cat. No.: 481973-500 mg): a certain amount of NADPH was weighed out and a 5 mM solution of NADPH was prepared with a 20 mM MgCl2 solution, and the final incubation concentration was 1 mM.
# Compounds: 3 mM, 1 mM, 0.3 mM, 0.1 mM, 0.03 mM, 0.01 mM, and 0 mM solutions of the test compounds were prepared with a DMSO-methanol (v:v = 1:9) solution, and the final incubation concentrations were 30 µM, 10 µM, 3 µM, 1 µM, 0.3 µM, 0.1 µM, and 0 µM. 30 µM, 10 µM, 3 µM, 1 µM, 0.3 µM, and 0 µM solutions of the positive compound (ketoconazole) were prepared with a DMSO-methanol (v:v = 1:9) solution, and the final incubation concentrations were 0.3 µM, 0.1 µM, 0.03 µM, 0.01 µM, 0.003 µM, and 0 µM.
# Substrate working solutions: 200 µM and 15 µM solutions of substrate working solutions (testosterone and midazolam) were prepared with PBS, separately, and the final incubation concentrations were 40 µM and 3 µM.
# Liver microsomes (purchased from BIOIVT, Cat. No.: X008070): the liver microsomes were diluted to […] with PBS, and the final incubation concentration was 0.1 mg/mL.
# The prepared test compounds or positive compounds were added to a 96-well plate, and then the prepared human liver microsome working solution and substrate working solution were added. The mixture was mixed well. The mixture was pre-incubated in a thermostat incubator at 37 °C for 5 min, and then the prepared NADPH was added to start the reaction. The mixture was incubated for 5 min or 10 min. After the incubation was completed, a pre-cooled acetonitrile solution containing an internal standard was added to terminate the reaction. After protein precipitation, the mixture was vortexed for 5 min with shaking and then centrifuged at 4000 rpm for 10 min. The supernatant was collected and added to the 96-well plate. The content (peak concentration ratio) of the metabolites of the substrate was determined by an LC-MS/MS method. The residual activity and the half maximal inhibitory concentration (IC50) of the enzyme were calculated based on the detected content.
# Percentage of remaining enzyme activity: The activity of each subtype of CYP450 enzyme was expressed as the amount of metabolite produced, and the percentage of remaining enzyme activity was calculated as follows: [formula]
# The concentrations of the test substances and the corresponding residual activity percentages were fitted using a nonlinear model of Excel software, and the concentration of the test substances at which 50% inhibition of metabolite production was achieved was the IC50 value.
# [9] = PK experiment in rats; type: in vivo; conditions: rat; SD male rats, PO 10 mg/kg, vehicle 0.5% MC/0.2% Tween 80, plasma
# Protocol: The samples were analyzed by LC-MS/MS. […] Table 6. Pharmacokinetic parameters for rats
# T2 sequence (P08684 whole entry): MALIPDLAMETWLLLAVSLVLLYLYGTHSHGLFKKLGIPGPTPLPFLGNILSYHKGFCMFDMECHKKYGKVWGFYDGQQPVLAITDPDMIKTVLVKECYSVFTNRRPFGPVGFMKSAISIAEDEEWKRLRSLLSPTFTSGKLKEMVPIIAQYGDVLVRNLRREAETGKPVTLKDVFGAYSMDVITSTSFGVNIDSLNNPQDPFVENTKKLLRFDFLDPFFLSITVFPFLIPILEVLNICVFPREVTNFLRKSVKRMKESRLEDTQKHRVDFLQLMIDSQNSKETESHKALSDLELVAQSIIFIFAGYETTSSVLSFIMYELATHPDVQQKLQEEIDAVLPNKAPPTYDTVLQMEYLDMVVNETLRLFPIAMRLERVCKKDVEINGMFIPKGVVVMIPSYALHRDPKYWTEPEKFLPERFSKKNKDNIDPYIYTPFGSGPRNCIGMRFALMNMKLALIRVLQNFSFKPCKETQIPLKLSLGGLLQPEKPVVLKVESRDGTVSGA
# T1 sequence (Q12809 whole entry): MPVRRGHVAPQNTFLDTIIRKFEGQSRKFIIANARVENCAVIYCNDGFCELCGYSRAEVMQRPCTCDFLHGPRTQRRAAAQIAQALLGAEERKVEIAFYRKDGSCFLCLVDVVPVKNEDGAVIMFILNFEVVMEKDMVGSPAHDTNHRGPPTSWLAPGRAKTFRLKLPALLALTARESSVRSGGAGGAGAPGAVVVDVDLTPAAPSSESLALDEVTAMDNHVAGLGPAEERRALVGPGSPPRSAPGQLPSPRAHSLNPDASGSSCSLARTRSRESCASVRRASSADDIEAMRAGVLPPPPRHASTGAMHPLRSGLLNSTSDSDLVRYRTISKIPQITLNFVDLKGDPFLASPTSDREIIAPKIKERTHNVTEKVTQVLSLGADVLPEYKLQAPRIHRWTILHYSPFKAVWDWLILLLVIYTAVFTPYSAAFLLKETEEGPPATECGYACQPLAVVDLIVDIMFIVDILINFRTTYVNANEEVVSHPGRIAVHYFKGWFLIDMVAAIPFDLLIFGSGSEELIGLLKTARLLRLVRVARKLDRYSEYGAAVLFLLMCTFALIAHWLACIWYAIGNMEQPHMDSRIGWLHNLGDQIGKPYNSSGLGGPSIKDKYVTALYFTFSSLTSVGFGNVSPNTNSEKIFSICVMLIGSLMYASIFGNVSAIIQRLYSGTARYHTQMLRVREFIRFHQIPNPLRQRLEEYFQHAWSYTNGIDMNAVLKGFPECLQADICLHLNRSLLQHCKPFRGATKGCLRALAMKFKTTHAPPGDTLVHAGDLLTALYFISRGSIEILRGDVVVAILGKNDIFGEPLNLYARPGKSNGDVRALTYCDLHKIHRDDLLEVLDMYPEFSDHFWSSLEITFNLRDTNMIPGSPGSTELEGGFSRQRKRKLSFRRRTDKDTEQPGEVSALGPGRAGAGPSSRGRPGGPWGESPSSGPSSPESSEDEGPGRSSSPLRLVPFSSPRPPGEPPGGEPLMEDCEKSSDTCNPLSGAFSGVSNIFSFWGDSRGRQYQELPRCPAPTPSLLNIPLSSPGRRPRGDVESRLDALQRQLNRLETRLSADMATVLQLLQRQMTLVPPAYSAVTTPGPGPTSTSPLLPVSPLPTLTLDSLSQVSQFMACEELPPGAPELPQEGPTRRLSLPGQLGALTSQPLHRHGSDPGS
IC50 [1] [nM],IC50 [2] [nM],AUC(0-t) [3] [ng·h/mL],Cmax [3] [ng/mL],SMILES,Selectivity [1],AUC(0-t) [4] [ng·h/mL],Cmax [4] [ng/mL],TGI [5] [%],Tumor volume [5] [mm^3],"inhibition at 3.5 h, 10 µM ([6]; herg membrane fluorescence polarization, 10 µM test substance, three duplicate wells) [%]",IC50 ([6]; only 10 µM tested) [nM],TGI [7] [%],Tumor volume [7] [mm^3],"IC50 ([8]; substrate midazolam 3 µM, read-out: IC50 3A4-Midazolam) [nM]","IC50 ([8]; substrate testosterone 40 µM, read-out: IC50 3A4-Testosterone) [nM]",AUC(0-t) [9] [ng·h/mL],Cmax [9] [ng/mL]
8.7,1080,15300 ± 2940,1480 ± 187,"[2H]C([2H])([2H])N(C(=O)c1cc2c3c(c(N)nc2cc1Cl)COC3)[C@@H]1COc2cc(C#Cc3cnn(C4CC4)c3)ccc21 [Compound 86A, (S)-4-amino-7-chloro-N-(6-((1-cyclopropyl-1H-pyrazol-4-yl)ethynyl)-2,3-dihydrobenzofuran-3-yl)-N-(methyl-D3)-1,3-dihydrofuro[3,4-c]quinoline-8-carboxamide]",124,–,–,–,–,–,–,–,–,–,–,–,–
–,–,–,–,"Cn1ncc(-c2ccc3c(=O)[nH]nc(CN)c3c2)c1-c1c(F)c(Cl)cc(OC2CC2)c1C#N (atropisomer, axis not shown) [Reference Example 6, reference compound]",–,1970 ± 316,428 ± 220,72.21,525.74,77.4,< 10000,90.96,279.68,2130,1950,100 ± 103,107 ± 149
2.6,196,14100 ± 4740,1430 ± 195,"[2H]C([2H])([2H])n1cc(C#Cc2ccc3c(c2)OC[C@H]3N(C)C(=O)c2cc3c(cc2F)nc(N)c2cnn(C)c23)cn1 [Compound 82A, (S)-4-amino-7-fluoro-N,1-dimethyl-N-(6-((1-(methyl-D3)-1H-pyrazol-4-yl)ethynyl)-2,3-dihydrobenzofuran-3-yl)-1H-pyrazolo[4,3-c]quinoline-8-carboxamide]",75,–,–,–,–,–,–,–,–,–,–,–,–
